{"source": "patent EP0641563A1", "about": "“REMEDY FOR CATARACT AND PRODUCTION THEREOF” (TAISHO PHARMACEUTICAL CO. LTD, priority 1992, dated 1993)", "key": {"[1]": {"experiment": "Corneal permeability in vitro (side-by-side permeation cell)", "procedure": "Corneal permeability was tested in vitro using a side-by-side type permeation cell equipped with cornea from albino rabbit. A 1% E-64c solution prepared using a buffer having the following formulation was charged in a donor cell, and the following buffer was charged in a receptor cell, and they were incubated at 34°C. The amount of E-64c permeated into the receptor cell was measured with time. The accumulative amount of the permeated E-64c was measured 1, 2, and 3 hours later.\nIn the same manner as in Experiment Example 4, corneal permeability of a 1% E-64d suspension (pH 7) was examined."}, "[2]": {"system": "galactose cataract in rats", "experiment": "Galactose cataract in rats (slit lamp, Sippel grades)", "assay_type": "in vivo, male SD rats", "conditions": "for progression of cataract (grades of Sippel) compared with control: Wilcoxon method; for progression of cataract compared with control, time series variance analysis: up to day 28", "procedure": "Three-week-old male SD rats (n=30) were bred in a breeding room having a temperature of 24±4°C and humidity of 55±15%, on Labo MR stock (manufactured by Nihon Nosan Kogyo Co., Ltd., Japan) and tap water.\nAs the test drugs, used were (1) 1% solution of E-64c prepared by dissolving E-64c bulk powder in 0.1N sodium hydroxide, adjusting the pH to 5 with 0.1N hydrochloric acid, and adding purified water; and (2) 1% suspension of E-64d prepared by suspending E-64d bulk powder in 0.3% Tween 80, the osmotic pressure of both of which having been adjusted to 290 mOsm/kg H₂O with sodium chloride. As a control, used was (3) physiological saline.\nThe test animals were pre-bred for a week, and then bred on a 25% galactose feed (solidified product of a mixture of galactose and Labo MR stock powder at the ratio of 1:3). The animals were fed for 24 hours daily for the first 7 days, and 9 hours a day from the 8th day. The test drugs were administered from the day when galactose feeding was initiated, and (1) was administered intraperitoneally once a day (100 mg/kg, 1 ml/100g as liquid), and (2) was instilled only in the right eye 4 times a day by 5 µl at a time without treatment to the left eye. The control group was instilled with (3) in the same manner as in the case of (2) without treatment to the left eye.\nLenses were observed under mydriasis using a slit lamp (SL-5D) at 7 day-intervals from the initiation of the test drug and physiological saline (control) administrations until day 28, and the progression of cataract up to the mature cataract was evaluated according to the following 8 stages of cataract grades defined by Sippel [Invest. Ophthalmol., vol. 6, 568-575 (1966)]."}, "[3]": {"system": "cultured rat lenses", "experiment": "Calcium ionophore-induced cataract in cultured rat lenses (opacity by image analyser)", "assay_type": "cell-based, male S.D. rats", "conditions": "10 µM calcium ionophore (A23187)", "procedure": "Lenses were dissected from 4-week-old male S.D. rats, and cultured for one day in (1) a basic culture medium (MEM), (2) a culture medium of (1) supplemented with 10 µM calcium ionophore (A23187), or (3) a culture medium of (2) supplemented with 4, 20, 100 or 500 µM E-64 or E-64d. Thereafter, the medium was changed as follows: (1) basic medium, (2) basic medium, and (3) basic medium with several concentrations of E-64 or E-64d, and culture was continued for 4 more days, after which opacity of lenses was measured using an image analyser. The ratio of the inhibition of the development of lens opacity by each test drug (E-64, E-64d) to that in the control group is shown in Fig. 2. […] As is evident from the results of Fig. 2, E-64 or E-64d inhibited the opacity of lens caused by calcium ionophore in a concentration-dependent manner. The inhibition effect was stronger in E-64d than in E-64, and the opacity of lens was inhibited by 50% or more at a concentration of 20 µM."}, "[4]": {"system": "cataract in Nakano mouse", "experiment": "Cataract in Nakano mouse, intraperitoneal administration", "assay_type": "in vivo, Nakano mice", "procedure": "Thirty-five Nakano mice (9 days old) were divided into three groups, and each group was intraperitoneally administered once a day with E-64d at 30 mg/kg or 100 mg/kg, or 5% gum arabic solution as a control. E-64d was suspended in 5% gum arabic solution at a concentration of 0.15% or 0.5%, respectively, and administered to the mice. After the eyes of the mice opened, opacity of the lens was observed using a slip lamp to evaluate progress of cataract."}, "[5]": {"experiment": "pH stability of 1% E-64d suspensions", "assay_type": "physicochemical", "conditions": "1% E-64d suspension", "excerpt": "The stability of 1% E-64d suspensions adjusted to various pHs was examined. […]"}, "[6]": {"system": "cultured rat lenses", "conditions": "selenite cataract models and diabetic cataract models of cultured rat lenses; Atarashii Ganka, vol. 6, 1573-1576 (1989); cited from earlier work"}}}
{"smiles": "CC(C)CCNC(=O)[C@H](CC(C)C)NC(=O)[C@H]1O[C@@H]1C(=O)O", "note": "[E-64c, (+)-(2S,3S)-3[(S)-3-methyl-1-(3-methylbutylcarbamoyl)butylcarbamoyl]-2-oxiranecarboxylic acid]", "values": [{"measurement": "corneal permeability, dependence on pH", "setting": "[1]", "result": "pH-dependent"}, {"measurement": "effect on corneal tissue", "setting": "[1]; 1% E-64c solution, pH range of 3 or below", "result": "tissue disorders causing corneal opacity were observed"}, {"measurement": "progression of cataract (grades of Sippel) compared with control", "setting": "[2]; 1% E-64c solution, 100 mg/kg intraperitoneally once a day, 14 days from initiation of administration", "result": "significant delay of cataract"}, {"measurement": "progression of cataract compared with control, time series variance analysis", "setting": "[2]; 1% E-64c solution, 100 mg/kg intraperitoneally once a day", "result": "significant delay of cataract"}]}
{"smiles": "CCOC(=O)[C@H]1O[C@@H]1C(=O)N[C@@H](CC(C)C)C(=O)NCCC(C)C", "note": "[E-64d]", "values": [{"measurement": "E-64d in the receptor solution", "setting": "[1]; pH 7", "result": "not detected"}, {"measurement": "inhibition effect on lens opacity, E-64d compared with E-64", "setting": "[3]; 4, 20, 100 or 500 µM", "result": "stronger"}, {"measurement": "inhibition of the opacity of lens caused by calcium ionophore", "setting": "[3]; 4, 20, 100 or 500 µM", "result": "concentration-dependent"}, {"measurement": "inhibition at 20 µM", "setting": "[3]; Rattus norvegicus, 120 h, 20 µM, 5 days culture, read-out: percent inhibition of lens opacity based on the opacity in the control group", "result": "≥ 50", "unit": "%"}, {"measurement": "proportion of the group showing nuclear opacity", "setting": "[4]; 30 mg/kg intraperitoneally once a day, mice 21 days old (control about 40%)", "result": "about 12%"}, {"measurement": "development of nuclear opacity", "setting": "[4]; 100 mg/kg intraperitoneally once a day, mice 21 days old (control about 40%)", "result": "no development of opacity was observed"}, {"measurement": "degree of nuclear opacity compared with control, time-course observation", "setting": "[4]; E-64d 30 or 100 mg/kg intraperitoneally once a day", "result": "limited to a smaller degree"}, {"measurement": "progression of cataract (grades of Sippel) compared with control", "setting": "[2]; 1% E-64d suspension instilled 4 times a day, 5 µl, 7 days from initiation of administration", "result": "significant delay of cataract"}, {"measurement": "progression of cataract (grades of Sippel) compared with control", "setting": "[2]; 1% E-64d suspension instilled 4 times a day, 5 µl, 14 days from initiation of administration", "result": "significant delay of cataract"}, {"measurement": "progression of cataract (grades of Sippel) compared with control", "setting": "[2]; 1% E-64d suspension instilled 4 times a day, 5 µl, 21 days from initiation of administration", "result": "delaying tendency"}, {"measurement": "progression of cataract compared with control, time series variance analysis", "setting": "[2]; 1% E-64d suspension instilled 4 times a day, 5 µl", "result": "significant delay of cataract"}, {"measurement": "stability", "setting": "[5]; in the vicinity of pH 4-6", "result": "stable"}, {"measurement": "residual rate", "setting": "[5]; pH 4, 40°C (4 wk), 40320 min", "result": 96.6, "unit": "%"}, {"measurement": "residual rate", "setting": "[5]; pH 4, 60°C (1 wk), 10080 min", "result": 98.7, "unit": "%"}, {"measurement": "residual rate", "setting": "[5]; pH 5, 40°C (4 wk), 40320 min", "result": 99.8, "unit": "%"}, {"measurement": "residual rate", "setting": "[5]; pH 5, 60°C (1 wk), 10080 min", "result": 98.7, "unit": "%"}, {"measurement": "residual rate", "setting": "[5]; pH 6, 40°C (4 wk), 40320 min", "result": 95.2, "unit": "%"}, {"measurement": "residual rate", "setting": "[5]; pH 6, 60°C (1 wk), 10080 min", "result": 97.9, "unit": "%"}, {"measurement": "residual rate", "setting": "[5]; pH 7, 40°C (4 wk), 40320 min", "result": 75.7, "unit": "%"}]}
{"smiles": "CC(C)C[C@H](NC(=O)[C@H]1O[C@@H]1C(=O)O)C(=O)NCCCCNC(=N)N", "note": "[E-64, trans-epoxysuccinyl-leucylamide-(4-guanidino)butane, reference compound]", "values": [{"measurement": "inhibition of the opacity of lens caused by calcium ionophore", "setting": "[3]; 4, 20, 100 or 500 µM", "result": "concentration-dependent"}, {"measurement": "effect on opacity of lens", "setting": "[6]", "result": "can prevent opacity of lens"}]}
